Assay results taken from patent US9796713B2, “Tricyclic compounds as alpha-7 nicotinic acetylcholine receptor ligands” (BRISTOL-MYERS SQUIBB COMPANY, priority 2014, dated 2017).

Molecular target: T1, α7-HI (Rattus norvegicus, UniProt Q05941)
T1 construct: expressed in transfected cells
Assay: FLIPR Ca2+-sensitive fluorescence assay, α7-HI (agonist activity) in HEK 293 cells
Assay type: cell-based
Conditions: Table 4; Ca2+ flux, HEK-293 cells expressing the channel; read-out: FLIPR α7-HI (EC50)
Description: I) α7 Nicotinic Acetycholine Receptor Binding. Membranes were prepared for binding using HEK293 cells stably expressing the rat α7 nicotinic acetycholine receptor (rat α7 nAChR). Cells were homogenized at 4° C. in hypotonic lysis buffer consisting of 10 mM Tris (pH 7.4), 5 mM EDTA and protease inhibitors and centrifuged at 32000×g for 20 minutes. The pellet was washed once in membrane wash buffer consisting of 50 mM Tris (pH 7.4), 1 mM EDTA and protease inhibitors and centrifuged at 32000×g for 20 minutes. This pellet was then resuspended in assay buffer consisting 50 mM KH2PO4 (pH 7.4 at 25° C.), 1 mM EDTA, 0.005% Triton-X 100 and 0.1% (v/v) Sigma Protease Inhibitor Cocktail. Aliquots were then frozen in dry ice/ethanol and kept at −80° C. until the day of the assay. II) A Ca^2+-Sensitive, Fluorescence-Based Assay α-7 for Nicotinic Acetylcholine Receptor Channel Function in Mammalian Cells (“FLIPR”). Summary: Lead compounds are evaluated for agonist activity at α-7, α3β4, α4αβ2, and α1β1δ1ε sub-types of nicotinic ACh receptor ion channels expressed in mammalian HEK 293 cells. Agonist potency and efficacy values are determined from kinetic fluorescence Ca^2+ influx measurements made using a 384 well FLIPR (Fluorescence Image Plate Reader). […] In this assay, channel expressing HEK cell lines seeded in 384 well assay plates are loaded with a membrane permeant fluorescent Ca^2+ indicator dye, whose 510 nm green emission signal increases in response to elevation of intracellular Ca^2+ concentration. The basal fluorescence from the cells is monitored in real time, followed by the acute addition of test compounds.
Materials and Methods: Reagents: The acetomethoxy (AM) ester of the Ca^2+ indicator dye Fluo-4 was obtained from InVitrogen, (Carlsbad, Calif.). Acetylcholine and all buffer constituents were purchased from Sigma Chemical Company, St. Louis, Mo. G418 and Minimal Essential Medium were purchased from InVitrogen Life Technologies, Carlsbad, Calif. Fetal bovine serum was purchased from (InVitrogen, Carlsbad, Calif.).
Cell Culture: HEK-293 cells were grown in Minimal Essential Medium containing 10% (v/v) fetal bovine serum at 37° C. in a 5% CO2 incubator. HEK-293 cells stably expressing the ion channels were grown in the same medium with the addition of 500 μg/ml G418.
Ca^2+ flux assays of Ca^2+ channels expressed in HEK-293 cells: HEK-293 cells expressing the ion channels of interest were plated in 384 well, black-walled, clear-bottomed, poly-D-lysine coated plates at a density of ˜20,000 cells/well in 20 μl of Minimal Essential Medium containing 10% (v/v) fetal bovine serum and incubated for 2 days at 29° C. in a 5% CO2 incubator. Prior to assay, cells were loaded with the Fluo-4 AM ester. […] Dye loading was allowed to proceed for 90 minutes at room temperature at which time the dye loading solution was removed and replaced with 40 μl/well of Hanks buffer. Cells loaded with dye were loaded onto a FLIPR384 (Molecular Devices, Sunnyvale, Calif.). Fluo-4 dye was excited using the 488 nm line of an argon laser. Emission was filtered using a 540+/−30 nm bandpass filter. For evaluation of the effects of test compounds using the Ca^2+ flux assay, compounds to be tested were provided in assay ready plates. For nicotinic receptor ion channel expressing cells, the assay was initiated by the addition of 20 μl/well of Hanks buffer containing test compounds. For all assays, data were collected at 1 Hz for 10 seconds (baseline), at which time the compound containing stimulus buffers are added, and further measurements collected at 0.33 Hz for 3 min.
Data Analysis: The statistical robustness of the nicotinic receptor Ca^2+ flux assays is determined from blanks and totals wells. […] The raw fluorescence units data files generated on the FLIPR plate reader are automatically exported and processed by in-house data analysis tools.

T1 sequence (Q05941 23-502): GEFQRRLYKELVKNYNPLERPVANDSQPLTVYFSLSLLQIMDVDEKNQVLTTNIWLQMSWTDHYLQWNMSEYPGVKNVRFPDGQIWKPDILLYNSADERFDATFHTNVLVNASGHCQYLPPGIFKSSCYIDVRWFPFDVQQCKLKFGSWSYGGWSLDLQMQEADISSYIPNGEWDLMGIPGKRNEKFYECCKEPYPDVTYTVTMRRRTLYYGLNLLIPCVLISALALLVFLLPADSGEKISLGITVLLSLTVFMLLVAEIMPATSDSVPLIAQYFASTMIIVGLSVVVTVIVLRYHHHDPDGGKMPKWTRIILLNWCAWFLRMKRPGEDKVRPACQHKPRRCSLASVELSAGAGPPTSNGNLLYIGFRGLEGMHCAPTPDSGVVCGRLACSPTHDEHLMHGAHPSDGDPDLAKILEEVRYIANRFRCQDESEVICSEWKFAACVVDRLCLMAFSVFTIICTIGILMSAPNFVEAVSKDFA

Structure (SMILES) | EC50 [µM]
O=C(c1n[nH]c2cc(Cl)ccc12)N1C2CC3CN(CCC31)C2 (stereo not drawn) [Example 46, ((2S*,3aR*,5R*,7aS*)-(6-chloro-1H-indazol-3-yl)(hexahydro-2,5-methanopyrrolo[3,2-c]pyridin-1(6H)-yl)methanone] | 0.01
O=C(c1noc2ccccc12)N1C2CC3CN(CCC31)C2 (stereo not drawn) [Example 47, ((2S*,3aR*,5R*,7aS*)-benzo[d]isoxazol-3-yl(hexahydro-2,5-methanopyrrolo[3,2-c]pyridin-1(6H)-yl)methanone] | 1.3
COc1cccc2[nH]nc(C(=O)N3C4CC5CN(CCC53)C4)c12 (stereo not drawn) [Example 48, ((2S*,3aR*,5R*,7aS*)-(4-methoxy-1H-indazol-3-yl)(hexahydro-2,5-methanopyrrolo[3,2-c]pyridin-1(6H)-yl)methanone] | 7.4
Cc1ccc2c(C(=O)N3C4CC5CN(CCC53)C4)n[nH]c2c1 (stereo not drawn) [Example 49, ((2S*,3aR*,5R*,7aS*)-(6-methyl-1H-indazol-3-yl)(hexahydro-2,5-methanopyrrolo[3,2-c]pyridin-1(6H)-yl)methanone] | 0.0042
Cc1ccc2c(C(=O)N3[C@H]4C[C@@H]5C[N@@](CC[C@@H]53)C4)n[nH]c2c1 [Example 49a, (2S,3aR,5R,7aS)-(6-methyl-1H-indazol-3-yl)(hexahydro-2,5-methanopyrrolo[3,2-c]pyridin-1(6H)-yl)methanone] | 0.0031
Cc1ccc2c(C(=O)N3[C@@H]4C[C@H]5C[N@](CC[C@H]53)C4)n[nH]c2c1 [Example 49b, (2R,3aS,5S,7aR)-(6-methyl-1H-indazol-3-yl)(hexahydro-2,5-methanopyrrolo[3,2-c]pyridin-1(6H)-yl)methanone] | 0.047

Same assay, conditions: Table 5; Ca2+ flux, HEK-293 cells expressing the channel; read-out: FLIPR α7-HI (EC50)

EC50 [µM] | Structure (SMILES)
0.36 | O=C(c1n[nH]c2ccccc12)N1C2CC3C1CCCN3C2 (centres unmarked) [Example 50, (1H-indazol-3-yl)(octahydro-2,8-epiminoindolizin-9-yl)methanone]
> 100 | O=C(c1cc2cccc(Cl)c2s1)N1C2CC3C1CCCN3C2 (centres unmarked) [Example 51, (7-chlorobenzo[b]thiophen-2-yl)(octahydro-2,8-epiminoindolizin-9-yl)methanone]
